From the supplement of paper PMC13380429
± gives the standard deviation of the averaged measurements.

Key:
Details in all cases: 72 h
Vero E6 [1] = assay: relative viability EC50 (midpoint between 100% and the lowest measured viability); higher = less toxic
HepG2 [2] = assay: as above
U2OS [3] = assay: as above
Caco-2 [4] = assay: as above
Vero E6 [5] = assay: drug sensitivity score (DSS) for viability; higher = more toxic; extreme values may be limits of the assay
HepG2 [6] = assay: as above
U2OS [7] = assay: as above
Caco-2 [8] = assay: as above
Vero E6 [9] = assay: cell viability relative to DMSO; higher = less toxic
HepG2 [10] = assay: as above
U2OS [11] = assay: as above
Caco-2 [12] = assay: as above
Calu-3 [13] = assay: relative viability EC50 (midpoint between 100% and the lowest measured viability); higher = less toxic
Calu-3 [14] = assay: drug sensitivity score (DSS) for viability; higher = more toxic; extreme values may be limits of the assay
Calu-3 [15] = assay: cell viability relative to DMSO; higher = less toxic

SMILES	relative viability EC50 (Vero E6 [1]) [µM]	relative viability EC50 (HepG2 [2]) [µM]	relative viability EC50 (U2OS [3]) [µM]	relative viability EC50 (Caco-2 [4]) [µM]	drug sensitivity score (Vero E6 [5])	drug sensitivity score (HepG2 [6])	drug sensitivity score (U2OS [7])	drug sensitivity score (Caco-2 [8])	cell viability (Vero E6 [9]; 1 nM) [%]	cell viability (Vero E6 [9]; 10 nM) [%]	cell viability (Vero E6 [9]; 100 nM) [%]	cell viability (Vero E6 [9]; 1000 nM) [%]	cell viability (Vero E6 [9]; 10000 nM) [%]	cell viability (HepG2 [10]; 1 nM) [%]	cell viability (HepG2 [10]; 10 nM) [%]	cell viability (HepG2 [10]; 100 nM) [%]	cell viability (HepG2 [10]; 1000 nM) [%]	cell viability (HepG2 [10]; 10000 nM) [%]	cell viability (U2OS [11]; 1 nM) [%]	cell viability (U2OS [11]; 10 nM) [%]	cell viability (U2OS [11]; 100 nM) [%]	cell viability (U2OS [11]; 1000 nM) [%]	cell viability (U2OS [11]; 10000 nM) [%]	cell viability (Caco-2 [12]; 1 nM) [%]	cell viability (Caco-2 [12]; 10 nM) [%]	cell viability (Caco-2 [12]; 100 nM) [%]	cell viability (Caco-2 [12]; 1000 nM) [%]	cell viability (Caco-2 [12]; 10000 nM) [%]	relative viability EC50 (Calu-3 [13]) [µM]	drug sensitivity score (Calu-3 [14])	cell viability (Calu-3 [15]; 1 nM) [%]	cell viability (Calu-3 [15]; 10 nM) [%]	cell viability (Calu-3 [15]; 100 nM) [%]	cell viability (Calu-3 [15]; 1000 nM) [%]	cell viability (Calu-3 [15]; 10000 nM) [%]
O=C(O)c1cn(C2CC2)c2cc(N3CCNCC3)c(F)cc2c1=O [ciprofloxacin]	> 10	> 10	> 10	> 10	0	0	0	0.4	102	97.8	102	91.8	97.1	106	104	114	78.1	99.8	100	97.8	98	96.4	103	112	100	108	112	79.1							
CNC(=O)c1c(I)c(NC(C)=O)c(I)c(C(=O)O)c1I [iothalamic-acid-d3]		> 10	> 10	> 10		0	0	0						107	101	107	94.9	100	99.6	109	104	106	103	91.8	91.5	87.6	94.5	102	> 10	0.1	94.6	99	80.3	102	85.2
COc1cc(NS(=O)(=O)c2ccc(N)cc2)nc(OC)n1 [sulphadimethoxine]	> 10	> 10		> 10	0	0		0	100	97.8	98.8	103	97.5	106	108	122	98.9	105						109	99.9	103	100	99.9	> 10	0	103	90.3	91.8	98.9	94
Cc1cn(-c2cc(NC(=O)c3ccc(C)c(Nc4nccc(-c5cccnc5)n4)c3)cc(C(F)(F)F)c2)cn1 [nilotinib]	> 10			> 10	0			0	107	98.2	103	103	106											101	114	97.9	106	88.1	> 10	0	98.8	106	111	90.1	100
C=C(NC(=O)C(=C)NC(=O)c1csc(C2=N[C@@H]3c4csc(n4)[C@H]4NC(=O)c5csc(n5)[C@H]([C@](C)(O)[C@@H](C)O)NC(=O)[C@H]5CSC(=N5)/C(=C/C)NC(=O)[C@H]([C@@H](C)O)NC(=O)c5csc(n5)[C@]3(CC2)NC(=O)[C@H](C)NC(=O)C(=C)NC(=O)[C@H](C)NC(=O)[C@H]([C@@H](C)CC)N[C@@H]2C=Cc3c([C@H](C)O)cc(nc3[C@H]2O)C(=O)O[C@@H]4C)n1)C(N)=O [thiostrepton]		> 10	> 10	> 10		4.3	0.7	0.2						111	102	81	87.6	84.5	100	94	95.8	75.3	93.6	102	89.3	89.5	82.9	96.9	> 10	0	101	95	97.8	99.1	110
O=C1NC(=O)/C(=C/c2cccc(C(F)(F)F)c2)S1 [SMI-4a]	> 10	> 10		> 10	0	0		0	104	101	99.1	101	95.9	96.4	112	91	97.4	105						97.7	101	105	104	92.7	> 10	0	101	98.1	95.4	100	97.4
O=C1C(Cl)=C(N2CCOCC2)C(=O)N1c1ccc(Cl)c(Cl)c1 [RI-1]	> 10	> 10	> 10	> 10	0	0	0	0	102	95.5	97.7	97.1	107	98.9	107	103	97.3	98.6	89.2	97.2	96.8	96.7	101	97.2	94.9	93.2	106	110							
[O-][S+](c1ccccc1)c1ccc2nnnn2n1 (centres undefined) [Ro-106-9920]	2.28	3.03	2.84	2.54	6.4	5.8	6	4	97.7	95.6	95.9	90.5	12.1	106	102	110	98.1	1.1	99.9	103	95	95.9	2.5	89.7	92.3	92.1	95.4	39.5		1.9	96.3	94.9	105	98.8	63.7
N#Cc1ccc(Oc2ccc3c(c2)COB3O)cc1 [crisaborole]	> 10	> 10		> 10	0	0		0	103	105	101	102	98.1	106	105	112	104	95.8						104	104	107	98.8	101	> 10	0	89.8	94.6	96.7	94.3	108
COc1ccc2[nH]cc(CCNC(C)=O)c2c1 [melatonin]				> 10				0																107	88.8	101	102	99.5	> 10	0	101	105	96.8	109	105
CC(C)c1ccc(-c2cc(=O)c3ccccc3o2)cc1 [MN-64]			> 10	> 10	2.2	2.5	0.2	1.9	96.6	94.2	98.9	98	61.5	91.9	97.6	94.8	94.8	65.1	102	99.4	102	95.2	88.2	105	98.8	105	84.9	81.1		1.7	113	105	97.2	96.1	72.7
CCCCCCc1ccc(O)cc1O.Nc1c2ccccc2nc2ccccc12 [acrisorcin]	2.49	1.65	2.75	2.66	6.8	9	4.5	3.3	105	102	102	91.7	0.3	103	106	95.3	77.9	0.3	100	101	100	96.1	27.9	99.5	103	96.6	96.7	47.4		2.5	99.1	88.3	101	96.4	60.7
CN[C@H](CC(C)C)C(=O)N[C@H]1C(=O)N[C@@H](CC(N)=O)C(=O)N[C@H]2C(=O)N[C@H]3C(=O)N[C@H](C(=O)N[C@H](C(=O)O)c4cc(O)cc(O)c4-c4cc3ccc4O)[C@H](O[C@H]3C[C@](C)(N)[C@@H](O)[C@H](C)O3)c3ccc(c(Cl)c3)Oc3cc2cc(c3O[C@@H]2O[C@H](CO)[C@@H](O)[C@H](O)[C@H]2O[C@H]2C[C@](C)(NCc3ccc(-c4ccc(Cl)cc4)cc3)[C@@H](O)[C@H](C)O2)Oc2ccc(cc2Cl)[C@H]1O [oritavancin]	> 10	> 10	> 10	> 10	0	0	0	0	108	113	93.2	106	95.7	104	106	98.9	104	105	102	100	103	96.5	102	97.2	97.7	98	90.4	102							
O=C(NCc1cccc(O)c1)Nc1nc(-c2ccncc2)cs1 [RKI-1447]				> 10	5.05 ± 1.8	2.05 ± 1.1	3.6 ± 0.57	0.65 ± 0.49	99.5 ± 3.7	100 ± 4.4	91.1 ± 13	76.1 ± 0.42	73.4 ± 0.28	94.2 ± 6	108 ± 9.9	101 ± 3.4	91.95 ± 0.49	73.1 ± 8.9	98.8 ± 2.4	99.3 ± 2.8	101 ± 4.9	87.5 ± 3.1	61.8 ± 2.3	97.8 ± 5.2	97 ± 0.14	94.8 ± 6.2	96.6 ± 1.1	81.3 ± 0.14	> 10	0	97.9	128	146	148	144
O=C(/C=C/c1ccccc1)NCCO [brolitene]	> 10	> 10	> 10	> 10	0	0	0	0	104	103	99.4	104	100	107	104	99.3	98	102	107	109	102	104	99.2	102	103	95	93.5	95							
